US10662204B2 (PFIZER INC., priority 2018, dated 2020)

How the values were obtained:
[1] = target: T1, GDP-loaded KRAS (1-169) G12C, C51S, C80L, C118S (Homo sapiens, UniProt P01116, C118S/C51S/C80L/G12C); assay: Mass Spectrometry Reactivity Assay (MSRA): covalent adduct of compound and KRAS G12C, Percent Modification; assay type: binding; conditions: for MSRA (% modification) 10 μM 0.25 hr / MSRA (% modification) 10 μM 0.50 hr: 10 μM compound; for MSRA (% modification) 5.0 μM 0.017 hr / MSRA (% modification) 5.0 μM 0.25 hr: 5.0 μM compound
T1 construct: GDP-loaded KRAS (1-169) G12C, C51S, C80L, C118S
Procedure, shortened: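 GDP-loaded KRAS(1-169) G12C/C51S/C80L/C118S at 5 μM in 25 mM Hepes pH 7.5, 200 mM NaCl, 5% glycerol incubated at RT with compound (typically 5 or 10 μM final, 1% DMSO). Quenched in formic acid at 1-60 min; intact-protein LC-TOF MS gives % modification = modified/(modified+unmodified).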

KRAS G12C = KRAS G12C (Homo sapiens, UniProt P01116, G12C); assay: Cell Activity Assay: accumulation of GDP-bound KRAS G12C in MIAPaCa-2 cells (Raf-1 RBD capture, MSD readout); assay type: cell-based; set-up: endogenous in cells; host or cells: MIAPaCa-2; conditions: 6 hours, assay limit is 30.00
Procedure, shortened: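 MIAPaCa-2 cells exposed 6 h at 37 °C to 3-fold compound dilutions (0.3% DMSO final), then lysed. Active GTP-KRAS captured on Raf-1 RBD-coated plates, detected with anti-pan-Ras and SULFO-TAG secondary by MSD electrochemiluminescence. Signal normalized to DMSO and maximum inhibition; IC50 from 4-parameter fit.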

Row | SMILES | MSRA (% modification) 10 μM 0.25 hr [1] [%] | IC50 (KRAS G12C) [µM] | MSRA (% modification) 10 μM 0.50 hr [1] [%] | MSRA (% modification) 5.0 μM 0.017 hr [1] [%] | MSRA (% modification) 5.0 μM 0.25 hr [1] [%]
1 | C=CC(=O)N1CCN(c2nc(OC[C@@H]3CCN(C)C3)nc3c(Oc4c(C)ccc5[nH]ncc45)nccc23)CC1 [Example 10B, 1-[4-(8-[(5-methyl-1H-indazol-4-yl)oxy]-2-{[(3R)-1-methylpyrrolidin-3-yl]methoxy}pyrido[3,4-d]pyrimidin-4-yl)piperazin-1-yl]prop-2-en-1-one] | 60 | 13.4 | – | – | –
2 | C=CC(=O)N1CCN(c2nc(NCC3CCC(=O)N3)nc3c(Oc4c(C)ccc5[nH]ncc45)cccc23)CC1 (stereo not shown) [Example 12F, 5-[({4-(4-acryloylpiperazin-1-yl)-8-[(5-methyl-1H-indazol-4-yl)oxy]quinazolin-2-yl}amino)methyl]pyrrolidin-2-one] | – | 29.1 | 20 | – | –
3 | C=CC(=O)N1CCN(c2nc(OC[C@H]3CCN(C)C3)nc3c(Oc4c(C)ccc5[nH]ncc45)nccc23)CC1 [Example 19E, 1-[4-(8-[(5-methyl-1H-indazol-4-yl)oxy]-2-{[(3S)-1-methylpyrrolidin-3-yl]methoxy}pyrido[3,4-d]pyrimidin-4-yl)piperazin-1-yl]prop-2-en-1-one] | 33 | 29.8 | – | – | –
4 | C=CC(=O)N1CCN(c2ncnc3c(Oc4c(Cl)c(F)cc5[nH]ncc45)nc(N)cc23)CC1 [Example 41A, 1-(4-{6-amino-8-[(5-chloro-6-fluoro-1H-indazol-4-yl)oxy]pyrido[3,4-d]pyrimidin-4-yl}piperazin-1-yl)prop-2-en-1-one] | 31 | 3.5 | – | – | –
5 | C=CC(=O)N1CCN(c2ncnc3c(Oc4c(C)ccc5[nH]ncc45)nc(C)cc23)CC1 [Example 02A, 1-(4-{6-methyl-8-[(5-methyl-1H-indazol-4-yl)oxy]pyrido[3,4-d]pyrimidin-4-yl}piperazin-1-yl)prop-2-en-1-one] | – | 5.25 | 15 | – | –
6 | C=CC(=O)N1CCN(c2nc(NCc3nc(C)c[nH]3)nc3c(Oc4c(C)ccc5[nH]ncc45)cccc23)CC1 [Example 01F, 1-[4-(2-{[(4-methyl-1H-imidazol-2-yl)methyl]amino}-8-[(5-methyl-1H-indazol-4-yl)oxy]quinazolin-4-yl)piperazin-1-yl]prop-2-en-1-one] | – | 9.34 | 35 | – | –
7 | C=CC(=O)N1CCN(c2nc(OCCc3ncc[nH]3)nc3c(Oc4c(C)ccc5[nH]ncc45)cccc23)CC1 [Example 09F, 1-(4-{2-[2-(1H-imidazol-2-yl)ethoxy]-8-[(5-methyl-1H-indazol-4-yl)oxy]quinazolin-4-yl}piperazin-1-yl)prop-2-en-1-one] | 64 | 3 | 75 | – | –
8 | C=CC(=O)N1CCN(c2ncnc3c(Oc4c(C)cccc4Cl)nccc23)CC1 [Example 03, 1-{4-[8-(2-Chloro-6-methylphenoxy)pyrido[3,4-d]pyrimidin-4-yl]piperazin-1-yl}prop-2-en-1-one] | – | > 30 | 15 | – | –
9 | C=CC(=O)N1CCN(c2nc(NCCC(=O)NC)nc3c(Oc4c(C)ccc5[nH]ncc45)cccc23)CC1 [Example 13F, N^3-{4-(4-acryloylpiperazin-1-yl)-8-[(5-methyl-1H-indazol-4-yl)oxy]quinazolin-2-yl}-N-methyl-β-alaninamide] | – | 17 | 26 | – | –
10 | C=CC(=O)N1CCN(c2nc(OC[C@]3(F)CCCN(C)C3)nc3c(Oc4c(Cl)c(F)cc5[nH]ncc45)nccc23)CC1 [Example 02I, 1-[4-(8-[(5-chloro-6-fluoro-1H-indazol-4-yl)oxy]-2-{[(3S)-3-fluoro-1-methylpiperidin-3-yl]methoxy}pyrido[3,4-d]pyrimidin-4-yl)piperazin-1-yl]prop-2-en-1-one] | – | 0.049 | – | – | 81
11 | C=CC(=O)N1CCN(c2ncnc3c(Oc4c(C)ccc5[nH]ncc45)nccc23)[C@@H](C)C1 [Example 10A, 1-[(3S)-3-methyl-4-{8-[(5-methyl-1H-indazol-4-yl)oxy]pyrido[3,4-d]pyrimidin-4-yl}piperazin-1-yl]prop-2-en-1-one] | – | 7.5 | 10 | – | –
12 | C=CC(=O)N1CCN(c2ncnc3c(Oc4c(Cl)c(F)cc5[nH]ncc45)cccc23)C[C@H]1C [Example 17C, 1-[(2R)-4-{8-[(5-chloro-6-fluoro-1H-indazol-4-yl)oxy]quinazolin-4-yl}-2-methylpiperazin-1-yl]prop-2-en-1-one] | – | 2.6 | 24 | – | –
13 | C=CC(=O)N1CCN(c2ncnc3c(Nc4c(C)ccc5[nH]ncc45)nccc23)CC1 [Example 05, 1-(4-{8-[(5-methyl-1H-indazol-4-yl)amino]pyrido[3,4-d]pyrimidin-4-yl}piperazin-1-yl)prop-2-en-1-one] | – | 29.3 | 5 | – | –
14 | C=CC(=O)N1CCN(c2ncnc3c(Oc4c(Cl)ccc5[nH]ncc45)cccc23)[C@@H](C)C1 [Example 09C, 1-[(3S)-4-{8-[(5-chloro-1H-indazol-4-yl)oxy]quinazolin-4-yl}-3-methylpiperazin-1-yl]prop-2-en-1-one] | – | 2.87 | 34 | – | –

The next lines start with the values.

Row | MSRA (% modification) 10 μM 0.25 hr [1] [%] | IC50 (KRAS G12C) [µM] | MSRA (% modification) 10 μM 0.50 hr [1] [%] | MSRA (% modification) 5.0 μM 0.017 hr [1] [%] | MSRA (% modification) 5.0 μM 0.25 hr [1] [%] | SMILES
15 | – | 0.028 | – | 60 | – | C=CC(=O)N1CCN(c2nc(Oc3cccc4c3CCN(C3CC3)C4)nc3c(Oc4c(Cl)c(F)cc5[nH]ncc45)nccc23)CC1 [Example 55I, 1-(4-{8-[(5-chloro-6-fluoro-1H-indazol-4-yl)oxy]-2-[(2-cyclo-propyl-1,2,3,4-tetrahydro-isoquinolin-5-yl)oxy]pyrido [3,4-d]pyrimidin-4-yl}piperazin-1-yl)prop-2-en-1-one]
16 | 11 | 0.413 | – | – | – | C=CC(=O)N1CCN(c2nc(OC[C@@H]3CCCN3C)nc3c(Oc4c(Cl)c(F)cc5[nH]ncc45)cccc23)CC1 [Example 16E, 1-[4-(8-[(5-chloro-6-fluoro-1H-indazol-4-yl)oxy]-2-{[(2S)-1-methylpyrrolidin-2-yl]methoxy}quinazolin-4-yl)piperazin-1-yl]prop-2-en-1-one]
17 | 66 | 0.944 | – | – | 55 | C=CC(=O)N1CCN(c2nc(OCc3cscn3)nc3c(Oc4c(C)ccc5[nH]ncc45)cccc23)CC1 [Example 23F, 1-(4-{8-[(5-methyl-1H-indazol-4-yl)oxy]-2-(1,3-thiazol-4-ylmethoxy)quinazolin-4-yl}piperazin-1-yl)prop-2-en-1-one]
18 | – | 0.17 | – | 34 | – | C=CC(=O)N1CCN(c2nc(O[C@@H]3CN(C)C[C@H]3OC)nc3c(Oc4c(Cl)ccc5[nH]ncc45)nccc23)CC1 [Example 49I]
19 | 81 | 0.239 | 83 | – | 78 | C=CC(=O)N1CCN(c2nc(OC[C@@H]3CCCN3C)nc3c(Oc4c(Cl)c(C)cc5[nH]ncc45)nccc23)CC1 [Example 09H, 1-[4-(8-[(5-chloro-6-methyl-1H-indazol-4-yl)oxy]-2-{[(2S)-1-methylpyrrolidin-2-yl]methoxy}pyrido[3,4-d]pyrimidin-4-yl)piperazin-1-yl]prop-2-en-1-one]
20 | – | 0.681 | 74 | – | – | C=CC(=O)N1CCN(c2ncnc3c(Oc4c(Cl)c(F)cc5[nH]ncc45)nc(C#N)cc23)CC1 [Example 32A, 4-(4-acryloylpiperazin-1-yl)-8-[(5-chloro-6-fluoro-1H-indazol-4-yl)oxy]pyrido[3,4-d]pyrimidine-6-carbonitrile]
21 | – | 0.339 | – | – | 55 | C=CC(=O)N1CCN(c2nc(O[C@H]3CCOC3)nc3c(Oc4c(Cl)c(F)cc5[nH]ncc45)nccc23)CC1 [Example 01J, 1-(4-{8-[(5-chloro-6-fluoro-1H-indazol-4-yl)oxy]-2-[(3S)-tetrahydrofuran-3-yloxy]pyrido[3,4-d]pyrimidin-4-yl}piperazin-1-yl)prop-2-en-1-one]
22 | – | 0.029 | – | 57 | – | C=CC(=O)N1CCN(c2nc(O[C@@H]3CN(C)C[C@H]3C(F)F)nc3c(Oc4c(Cl)c(F)cc5[nH]ncc45)nccc23)CC1 (racemic) [Example 36I, rac-1-[4-(8-[(5-chloro-6-fluoro-1H-indazol-4-yl)oxy]-2-{[(3S,4R)-4-(difluoro-methyl)-1-methyl-pyrrolidin-3-yl]oxy}pyrido [3,4-d]pyrimidin-4-yl)piperazin-1-yl]prop-2-en-1-one]
23 | 80 | 0.237 | – | – | – | C=CC(=O)N1CCN(c2nc(OC[C@@H]3C[C@H](F)CN3C)nc3c(Oc4c(Cl)c(F)cc5[nH]ncc45)nccc23)CC1 [Example 11H, 1-[4-(8-[(5-chloro-6-fluoro-1H-indazol-4-yl)oxy]-2-{[(2S,4S)-4-fluoro-1-methylpyrrolidin-2-yl]methoxy}pyrido[3,4-d]pyrimidin-4-yl)piperazin-1-yl]prop-2-en-1-one]
24 | – | 1.29 | 61 | – | – | C=CC(=O)N1CCN(c2ncnc3c(Oc4c(Cl)c(C)cc5[nH]ncc45)nc(C)cc23)CC1 [Example 05C, 1-(4-{8-[(5-chloro-6-methyl-1H-indazol-4-yl)oxy]-6-methylpyrido[3,4-d]pyrimidin-4-yl}piperazin-1-yl)prop-2-en-1-one]
